In patent publication US8592403B2, “Diazepine and diazocane compounds as MC4 agonists” (Pfizer Limited, priority 2008, dated 2013) one finds inhibition, microsomal CLint and EC50 data, which are given here for 4 compounds.

Data set [1] concerns the target T1, CYP3A4 (Homo sapiens, UniProt P08684).
T1 construct: utilizes human liver microsomes together with isoform-specific clinical drug probes; from tissue; host or cells: human liver microsomes
The data set is described as follows: High density DDI 3 μM cocktail screen in human liver microsomes, midazolam probe. In kind it is in vitro ADME. As to conditions: human, liver microsomes, probe midazolam, read-out: % inhibition 3A4 @ 3 μM. An outline of the steps:
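Pooled human liver microsomes incubated with isoform-specific clinical probe substrates as a cocktail (midazolam for CYP3A4), with or without test compound at 3 μM. Metabolite formation followed over time by LC-MS/MS. Inhibition expressed as a single-point percentage.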

Data set [2] in a line: In vitro metabolism rate determination, human liver microsome (HLM) assay. In kind it is in vitro ADME. As to conditions: human, liver microsomes, read-out: HLM: Clint, app. In outline:
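Human liver microsomes at 0.5 nmol cytochrome P450/ml with 1 μM substrate, pre-warmed 5 min at 37° C, reaction started with NADP; samples taken 0–60 min and terminated. Substrate loss measured; first-order rate constant from log-linear regression converted to half-life or Clint (μl/min/mg protein).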

Data set [3] concerns the target MC4 receptor (Homo sapiens, UniProt P32245). Put plainly: MC4 EC50 functional potency (protocol E of US2005/0176772 / WO 2005/077935). In kind it is cell-based. As to the method:
The compounds of formula (I) of the present invention have utility as MCR4 agonists in the treatment of various disease states.
MC5 and MC4 EC50 activity was determined as described by assay protocols D and E, respectively, in US2005/0176772 (pages 28-30).

Data set [4] has as its target T2, human MC3 receptors (Homo sapiens, UniProt P41968).
T2 construct: stably transfected with full length cDNA encoding human MC1 or MC3 receptors; expressed in transfected cells
The data set is described as follows: In vitro agonist potency (EC50) at melanocortin receptor type 3, cAMP in recombinant cell line. In kind it is cell-based. As to the method:
Measurement of In Vitro Agonist Potency (EC50) of Compounds Against Melanocortin Receptors Type 1 and 3 (MC1 and MC3).
Activation of melanocortin (MC) receptors by agonists results in activation of intracellular adenylate cyclase enzymes that synthesise the second messenger signalling molecule, adenosine 3′,5′-cyclic monophosphate (cAMP). Changes in cAMP levels following treatment of recombinant MC1 and MC3 cell lines with test compound were measured and an MC1 and MC3 potency estimate (EC50) calculated as follows: […]
Human embryonic kidney (HEK) or Chinese hamster ovary cell lines stably transfected with full length cDNA encoding human MC1 or MC3 receptors, respectively, were established using standard molecular biology methods. Test compounds were dissolved in dimethyl sulfoxide (DMSO) at 4 mM. 11 point half log unit increment dilution series of test compound, typically starting at 50 uM were prepared in a buffer comprised of phosphate buffered saline (PBS), 2.5% DMSO and 0.05% pluronic F-127 surfactant. Freshly cultured cells at 80-90% confluence were harvested and re-suspended in Dulbecco's Modified Eagle's Medium (DMEM). Cells (10,000 for MC3, 20,000 for MC1) were added to the test compound dilution series in a 384 well assay plate and incubated for 1 hour at 37° C. The relative cAMP concentration in each well was then measured using a β-galactosidase enzyme fragment complementation method purchased in kit form as the Discoverx cAMP II kit from GE Healthcare/Amersham Biosciences UK. In the case of MC1,3-Isobutyl-1-methylxanthine (IBMX) at a concentration of 750 μM was included in DMEM as the cells were re-suspended for assay. […] Sigmoidal curves were fitted to plots of log10 inhibitor concentration vs percent effect using a custom made software application called SIGHTS and EC50 estimates determined by the software as the concentration of test compound giving an effect half way between the bottom and top asymptotes of the sigmoidal dose response curve. Each experiment included an EC50 determination for alpha melanocyte stimulating hormone, which was used as a standard to track assay consistency and allow fair comparison between EC50 estimates obtained in different experiments.

MC4 receptor, sequence (P32245 whole entry): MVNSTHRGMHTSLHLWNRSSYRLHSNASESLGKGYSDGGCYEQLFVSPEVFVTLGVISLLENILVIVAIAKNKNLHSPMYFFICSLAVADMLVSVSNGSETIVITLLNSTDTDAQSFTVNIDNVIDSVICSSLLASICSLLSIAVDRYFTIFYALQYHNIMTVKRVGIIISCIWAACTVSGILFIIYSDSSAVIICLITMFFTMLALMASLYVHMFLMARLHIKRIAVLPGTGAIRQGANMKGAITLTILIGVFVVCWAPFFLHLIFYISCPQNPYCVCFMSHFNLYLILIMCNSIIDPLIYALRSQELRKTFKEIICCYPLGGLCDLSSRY
T1 sequence (P08684 whole entry, canonical isoform): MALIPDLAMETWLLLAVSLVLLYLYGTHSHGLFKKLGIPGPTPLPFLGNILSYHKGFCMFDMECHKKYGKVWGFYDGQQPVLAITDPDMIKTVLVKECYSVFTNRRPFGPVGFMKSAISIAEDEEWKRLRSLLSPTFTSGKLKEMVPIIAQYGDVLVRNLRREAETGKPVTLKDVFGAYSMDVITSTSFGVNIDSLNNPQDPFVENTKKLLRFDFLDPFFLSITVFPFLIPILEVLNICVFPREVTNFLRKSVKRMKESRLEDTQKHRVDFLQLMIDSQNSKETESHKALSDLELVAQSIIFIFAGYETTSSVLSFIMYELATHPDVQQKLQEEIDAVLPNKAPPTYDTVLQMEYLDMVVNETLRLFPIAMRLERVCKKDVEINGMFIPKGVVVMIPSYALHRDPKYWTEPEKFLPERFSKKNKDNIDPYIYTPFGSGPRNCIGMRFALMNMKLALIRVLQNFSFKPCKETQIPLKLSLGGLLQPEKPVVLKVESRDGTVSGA
T2 sequence (P41968 whole entry): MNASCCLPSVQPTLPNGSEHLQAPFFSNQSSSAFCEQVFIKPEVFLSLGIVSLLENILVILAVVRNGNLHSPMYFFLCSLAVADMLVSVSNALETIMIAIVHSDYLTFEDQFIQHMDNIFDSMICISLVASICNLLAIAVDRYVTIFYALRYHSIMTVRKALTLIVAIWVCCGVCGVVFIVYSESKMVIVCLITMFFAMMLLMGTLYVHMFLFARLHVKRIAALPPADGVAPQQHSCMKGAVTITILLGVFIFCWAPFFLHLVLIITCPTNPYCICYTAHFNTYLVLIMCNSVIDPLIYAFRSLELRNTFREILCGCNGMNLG

Turning to `COC(=O)N1CCN(C(=O)[C@@H]2CN(c3ccc(=O)[nH]n3)C[C@H]2c2ccc(OC)cc2F)CCC[C@@H]1c1ccc(Cl)cc1` [Example 90, methyl 8R-(4-chlorophenyl)-4-{[(3S,4R)-4-(2-fluoro-4-methoxyphenyl)-1-(6-oxo-1,6-dihydropyridazin-3-yl)pyrrolidin-3-yl]carbonyl}-1,4-diazocane-1-carboxylate], the inhibition at 3 µM in data set [1] turned out to be 53.8%. Further, in data set [2], the microsomal CLint at 1 μM is 11.7 µL/min/mg. For the same compound, the EC50 in data set [3] amounted to 1.83 nM; in data set [4], 456 nM.

Take `COC(=O)N1CCN(C(=O)[C@@H]2CN(C(C)(C)C)C[C@H]2c2ccc(OC)cc2F)CCCC1c1ccc(Cl)cc1` (stereo partly shown) [Example 91]: the inhibition at 3 µM in data set [1] stood at 33%. Also, in data set [2], the microsomal CLint at 1 μM stood at 46.9 µL/min/mg. The EC50 in data set [3] turned out to be 20.2 nM; in data set [4], 7380 nM.

As for `COC(=O)N1CCN(C(=O)[C@@H]2CN(c3ccc(=O)n(C)n3)C[C@H]2c2ccc(OC)cc2F)CCC[C@H]1c1ccc(Cl)cc1` [Example 118], in data set [1], the inhibition at 3 µM is 48%. The microsomal CLint at 1 μM in data set [2] turned out to be 23.2 µL/min/mg. Also, the EC50 in data set [3] came to 1.83 nM; in data set [4], 8200 nM.

In the case of `COC(=O)N1CCN(C(=O)[C@@H]2CN(c3ccc(=O)n(C)n3)C[C@H]2c2ccc(OC)cc2F)CCC[C@@H]1c1ccc(Cl)cc1` [Example 119, methyl 8R-(4-chlorophenyl)-4-{[(3S,4R)-4-(2-fluoro-4-methoxyphenyl)-1-(1-methyl-6-oxo-1,6-dihydropyridazin-3-yl)pyrrolidin-3-yl]carbonyl}-1,4-diazocane-1-carboxylate], the inhibition at 3 µM in data set [1] is 54.5%. Also, in data set [2], the microsomal CLint at 1 μM is 18.8 µL/min/mg. Further, the results for the EC50 in data set [3] and in data set [4] were 8.53 nM and 11200 nM, respectively.
